Source: PMC12424289, “Programmable Nanostructure Assembly of a Paclitaxel Derivative Enables Tunable Anticancer Therapy via Hydrogen Bond Engineering” (ACS Nano, 2025)

Experiment: Biodistribution in 4T1 tumor-bearing mice
Assay type: in vivo, Balb/c mice
Conditions: iv 10.0 mg·kg^–1
Description: For plasma samples, 50 μL of plasma was mixed with 100 μL of a docetaxel acetonitrile solution (15 ng·mL^–1) for protein precipitation. The mixture was vortexed and then centrifuged at 4 °C, 17 000 rpm for 30 min. For tissue samples, mice were euthanized at specified time points, and tissues were harvested and rinsed with saline. Two kidneys, the entire heart, spleen, lung, tumor, and 150–200 mg of liver were placed in grinding tubes. Saline was added at a ratio of 1:5 (m/v), and the tissues were ground using a freezing grinder (Jingxin, China) at 4 °C. Next, 100 μL of docetaxel acetonitrile solution (15 ng·mL^–1) was added to 50 μL of the tissue homogenate. […] The supernatants for both plasma and tissue samples were analyzed by LC-MS as described below.
The concentrations of PTP and PTX in plasma and tissue samples were determined using liquid chromatography–mass spectrometry (LC-MS) with a G6470A system (Agilent, USA) equipped with a C18 column (2.1 × 100 mm, 2.7 μm, Agilent, USA). […]
Pharmacokinetic features were evaluated in Sprague–Dawley rats (200–300 g, n = 6 per group) following a single intravenous administration of PTX solution (1.0 mg·mL^–1), PTP (1.2 mg·mL^–1), or PTP@PEG (1.2 mg·mL^–1) at a dose equivalent to 3.0 mg·kg^–1 PTX. […] Biodistribution was assessed in female Balb/c mice (18–22 g; n = 6 per group) bearing subcutaneous 4T1 tumors (target volume 200–300 mm^3). […]

For `CC(=O)O[C@H]1C(=O)[C@@]2(C)[C@H]([C@H](OC(=O)c3ccccc3)[C@]3(O)C[C@H](OC(=O)[C@H](OC(=O)CCP(=O)(O)O)[C@@H](NC(=O)c4ccccc4)c4ccccc4)C(C)=C1C3(C)C)[C@]1(OC(C)=O)CO[C@@H]1C[C@@H]2O` [PTP, PTX-2’–OOC-P], the “biodistribution, organs of accumulation” value was “primarily accumulated in the liver and kidney”.
